Assay results reported in patent publication US20090111822A1, “1,2,3-TRIAZOLE PYRROLIDINE DERIVATIVES AS MODULATORS OF MGLUR5” (AstraZeneca AB, priority 2007, published 2009).

Tests used:
human mGluR5d = biological target: T1, human mGluR5d (Homo sapiens, UniProt P41594); assay: FLIPR assay, mGluR5 antagonism (intracellular calcium mobilization); format: cell-based; conditions: cells expressing human mGluR5d; read-out: FLIPR hmGluR5d
T1 construct: expressed in transfected cells; The culture medium holds Hygromycin B and Zeocin, which points to a stably transfected line
Source text: Functional Assessment of mGluR5 Antagonism in Cell Lines Expressing mGluR5D
The properties of the compounds of the invention can be analyzed using standard assays for pharmacological activity. Examples of glutamate receptor assays are well known in the art as described in for example Aramori et al, Neuron 8:757 (1992), Tanabe et al., Neuron 8:169 (1992), Miller et al., J. Neuroscience 15: 6103 (1995), Balazs, et al., J. Neurochemistry 69:151 (1997). The methodology described in these publications is incorporated herein by reference. […]
Cells expressing human mGluR5d as described in WO97/05252 cultured in a mixture of high glucose DMEM with Glutamax (31966-021) (500 mL), 10% dialyzed fetal bovine serum (Hyclone #SH30079.03) (56 mL), 200 μg/mL Hygromycin B (Invitrogen 45-0430, 50 mg/mL) (2.2 mL), 200 μg/mL Zeocin (Invitrogen #R250-01; 100 mg/mL) (1.1 mL) are seeded at a density of 100,000 cells per well on collagen coated clear bottom 96-well plates with black sides and cells were allowed to adhere over night before experiments. […] The fluorescence signal is sampled 50 times at 1-second intervals followed by 3 samples at 5-second intervals immediately after each of the two additions. Responses are measured as the difference between the peak heights of the response to agonist, less the background fluorescence within the sample period. […]

[1] = Determination of brain to plasma ratio in rat; format: in vivo; conditions: brain and plasma, female Sprague Dawley rats, drug in brain over drug in plasma, read-out: Brain/Plasma Ratio of compound in Rat
Method: Brain to plasma ratios are estimated in female Sprague Dawley rats. The compound is dissolved in water or another appropriate vehicle. For determination of brain to plasma ratio the compound is administrated as a subcutaneous, or an intravenous bolus injection, or an intravenous infusion, or an oral administration. At a predetermined time point after the administration a blood sample is taken with cardiac puncture. The rat is terminated by cutting the heart open, and the brain is immediately retained. The blood samples are collected in heparinized tubes and centrifuged within 30 minutes, in order to separate the plasma from the blood cells. The plasma is transferred to 96-well plates and stored at −20° C. until analysis. The brains are divided in halt and each half is placed in a pre-tarred tube and stored at −20° C. until analysis. Prior to the analysis, the brain samples are thawed and 3 mL/g brain tissue of distilled water is added to the tubes. The brain samples are sonicated in an ice bath until the samples are homogenized. Both brain and plasma samples are precipitated with acetonitrile. After centrifugation, the supernatant is diluted with 0.2% formic acid. […] After reconstitution of the residuals the samples are ready for injection onto the HPLC column.

T1 sequence (P41594 21-942 isoform P41594-3 limits assumed): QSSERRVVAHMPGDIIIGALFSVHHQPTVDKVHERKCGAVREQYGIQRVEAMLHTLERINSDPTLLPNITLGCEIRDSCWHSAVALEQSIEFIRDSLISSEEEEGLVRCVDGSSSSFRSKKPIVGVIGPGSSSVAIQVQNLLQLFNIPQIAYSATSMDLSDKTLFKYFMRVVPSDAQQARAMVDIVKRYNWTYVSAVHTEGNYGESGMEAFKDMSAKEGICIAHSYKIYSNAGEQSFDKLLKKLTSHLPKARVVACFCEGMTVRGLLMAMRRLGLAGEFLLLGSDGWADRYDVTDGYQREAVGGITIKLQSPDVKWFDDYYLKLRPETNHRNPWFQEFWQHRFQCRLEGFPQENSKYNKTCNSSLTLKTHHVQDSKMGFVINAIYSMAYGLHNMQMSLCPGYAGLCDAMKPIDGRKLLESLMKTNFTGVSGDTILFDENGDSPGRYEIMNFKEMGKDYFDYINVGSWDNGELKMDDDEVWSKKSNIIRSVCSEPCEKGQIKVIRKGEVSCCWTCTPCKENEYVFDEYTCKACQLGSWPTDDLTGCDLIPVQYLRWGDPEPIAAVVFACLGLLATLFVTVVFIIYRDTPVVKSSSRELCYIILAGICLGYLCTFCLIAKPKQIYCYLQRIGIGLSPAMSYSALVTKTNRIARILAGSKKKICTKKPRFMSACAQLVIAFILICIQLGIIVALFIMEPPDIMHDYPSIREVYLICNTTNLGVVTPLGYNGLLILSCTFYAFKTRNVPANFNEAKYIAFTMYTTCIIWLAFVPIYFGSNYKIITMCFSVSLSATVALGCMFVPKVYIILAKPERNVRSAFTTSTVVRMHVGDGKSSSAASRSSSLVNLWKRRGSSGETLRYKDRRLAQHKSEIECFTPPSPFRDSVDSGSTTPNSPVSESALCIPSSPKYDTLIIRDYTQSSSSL

| Structure (SMILES) | IC50 (human mGluR5d) | Kp [1] |
| --- | --- | --- |
| Cn1c(-c2ccncc2)nnc1N1CCC[C@@H]1c1cn(-c2cccc(Cl)c2)nn1 [Example 8.1, 4-(5-{(2R)-2-[1-(3-Chlorophenyl)-1H-1,2,3-triazol-4-yl]pyrrolidin-1-yl}-4-methyl-4H-1,2,4-triazol-3-yl)pyridine] | 58 nM | 0.03 |
| Cn1c(-c2cccnc2)nnc1N1CCC[C@@H]1c1cn(-c2cccc(Cl)c2)nn1 [Example 8.2, 3-(5-{(2R)-2-[1-(3-chlorophenyl)-1H-1,2,3-triazol-4-yl]pyrrolidin-1-yl}-4-methyl-4H-1,2,4-triazol-3-yl)pyridine] | 116 nM | < 0.015 |
